Source: patent EP2547369B1, “A NA[…] MICELLE FORMED BY AN A[…]-COPOLYMER AND ENCAPSULATING A […]” (King Saud University, priority 2010, dated 2011)

Experiments:
[1] = cited from earlier work
[2] = test system: Jurkat human leukemia cell line; assay: MTT assay, cytotoxicity of free and micelle-encapsulated Gd(III) complex on Jurkat; assay type: cell-based; details: 3 days; for cytotoxicity: 50 µM
Description: (§1) The present inventors also evaluated the cytotoxicity of Gd(III) complexes using the MTT assay, another method measuring cell viability, on the Jurkat and MCF-7 cell lines (Figure 9 and 11). […] In order to estimate the concentration of Gd (III) complexes able to reduce cell viability by 50% (IC50), the present inventors plotted a linear regression line for each used cell line (Figure 10). […] It appears thus that Jurkat cells are slightly more susceptible to Gd (III) complexes than MCF-7 cells.
To compare the cytotoxicity of free and micelle-encapsulated Gd(III) complexes and to verify if the time of dialysis influences polymeric micelle cytotoxicity, the present inventors performed again the MTT assay on Jurkat cells. The cells were treated with incremental concentrations of the free and micelle-encapsulated Gd(III) complexes.
Two different cell lines were used to assess Gd(III) cytotoxicity: Jurkat, and MCF-7. Jurkat cells were seeded on two 96-well culture plates (BD Falcon) (50 µl in each well with a concentration of 4x10^5 cells/mL). Different concentrations (5 µM, 10 µM, 15 µM and 20 µM) of Gd(III) complex solution, diluted in 50 µl of RPMI-1640, were used. Each test was repeated eight times. As a negative control, cells were treated with ethanol (96%) (the same amount of ethanol present in the cells treated with a highest concentration of Gd(III) complex). Incubation was carried out for 3 days. In this experiment the toxicity of Gd(III) complex was evaluated by the 3-(4, 5-dimethylthiazol-2-yl)-2, 5-diphenyl tetrazolium bromide (MTT) assay. At the end of each incubation time 10 µl of 5 mg/mL MTT solution (AppliChem) were added to each well followed by further incubation for 4h. Then, 100 µl of 0.04 N HCL in isopropanol (BDH Prolabo) were added to the wells and formazan crystals were allowed to solubilize for 1 hour at room temperature. The formazan concentration was quantified using a spectrophotometer (Tecan Infinite M200 monochromator-based multi-function microplate reader) by measuring the absorbance at 570 nm and 630 nm. The final optical density (OD) obtained from formazan formation was calculated with the following formula: OD=L(570nm)-L(630nm). The toxicity was assessed by calculating the % of cell survival in relation to the control untreated group. […]
To assess Gd(III) complex-loaded polymeric micelle cytoxicity and to compare it with the toxicity from free Gd(III) complex, Jurkat cells were seeded on a 96-well culture plate (50 µl in each well with a concentration of 4x10^5 cells/mL). […] The cytotoxicity of Gd(III) complex and Gd(III) complex-loaded polymeric micelles was evaluated by the MTT assay following the procedure mentioned on 8.2.

[3] = test system: MCF-7 breast cancer cell line; assay: MTT assay, cytotoxicity of Gd(III) complex on MCF-7; assay type: cell-based, human
Description: as §1
Two different cell lines were used to assess Gd(III) cytotoxicity: Jurkat, and MCF-7. Jurkat cells were seeded on two 96-well culture plates (BD Falcon) (50 µl in each well with a concentration of 4x10^5 cells/mL). […] Each test was repeated eight times. As a negative control, cells were treated with ethanol (96%) (the same amount of ethanol present in the cells treated with a highest concentration of Gd(III) complex). Incubation was carried out for 3 days. In this experiment the toxicity of Gd(III) complex was evaluated by the 3-(4, 5-dimethylthiazol-2-yl)-2, 5-diphenyl tetrazolium bromide (MTT) assay. At the end of each incubation time 10 µl of 5 mg/mL MTT solution (AppliChem) were added to each well followed by further incubation for 4h. Then, 100 µl of 0.04 N HCL in isopropanol (BDH Prolabo) were added to the wells and formazan crystals were allowed to solubilize for 1 hour at room temperature. The formazan concentration was quantified using a spectrophotometer (Tecan Infinite M200 monochromator-based multi-function microplate reader) by measuring the absorbance at 570 nm and 630 nm. The final optical density (OD) obtained from formazan formation was calculated with the following formula: OD=L(570nm)-L(630nm). The toxicity was assessed by calculating the % of cell survival in relation to the control untreated group. The procedure described above was repeated for the MCF-7 cell line, after being seeded at 5 × 10^3 cells per each well and allowed to attach for 24h.

[4] = test system: Jurkat cell line; assay: Cell count with Trypan Blue, cytotoxicity of Gd(III) complex; assay type: cell-based, human; details: 3 days
Protocol: The MCF-7, MDA-MB-468, HeLa, 293T; ARPE19; D407 and S17 adherent cell lines were maintained in DMEM medium (LONZA) supplemented with 10% fetal bovine serum (FBS) (PAA), glutamine (200 mM), penicillin (10000 units/mL) and streptomycin (10000 µg/mL) from LONZA. All cell culture incubations were performed at 37°C under humidified atmosphere of 5% CO2. The Jurkat and DND41 suspension cell lines were maintained in RPMI 1640 medium (LONZA) supplemented as above. Cells were thawed at 37°C and pipetted into 10 mL of prewarmed medium. The cells were centrifuged at 300 g for 5 minutes to remove dimethylsulfoxide (DMSO) (Merck). Then, the supernatant was discarded and the pellet resuspended in 2 mL of fresh medium. The cells were placed into T25 flasks (Nunc) and 8 mL of medium was added for a final volume of 10 mL. The medium was changed every 2 days. […] The hemocytometer Neubauer chamber (Hausser Scientific) was filled with the cell suspension and uncolored viable cells were counted on an inverted light microscope (Leica DM IL). The cells were counted in four 1 mm^2 squares. The equation to calculate the cell number per cubic millimeter is the following: Number of cells counted per square millimeter × dilution used × 10. […]

## Cc1ccc2ccc3cccc4ccc1c2c34 [1-methylpyrene]
[1]
  solubility in aqueous media: ca. 10^-7 M

## tetraaquodichloro(4,4'-ditBu-2,2'-bipyridine) gadolinium(III) chloride [Gd(III) complexes]
[2]; 10 µM
  toxicity (number of viable cells): toxic
[2]
  cytotoxicity: kill all cells
[2]; listed as free Gd(III) complexes
  cytotoxicity: killed almost all cells
[2]; from linear regression line, read-out: IC50 (concentration able to reduce cell viability by 50%)
  IC50: 10.2 µM
[3]; 10 µM, MTT, 3 days, MCF-7
  toxicity (number of viable cells): toxic
[3]; 50 µM, 3 days, MCF-7 cells as printed
  toxicity: overall cell death
[3]; MCF-7, 3 days, MTT, from linear regression line, read-out: IC50 (concentration able to reduce cell viability by 50%)
  IC50: 12.8 µM
[4]; 10 µM
  toxicity by cell count: less toxic
[4]; 50 µM
  toxicity by cell count: very toxic
